Data as given in patent publication US20040258620A1, “(Ethylene)-( propylene)-triaminepentaacetic acid derivatives, process for their production, and their use for the production of pharmaceutical agents” (priority 2001, published 2004).
Like-named read-outs stand apart in the source and are kept apart here.

Key:
[1] = Protonation constants of the ligands by pH-potentiometry; type: physicochemical; conditions: protonation constant of the ligand; I=0.1M TMACI, t=25° C.
Text: (§1) Protonation constants of the two ligands, DPTPA and EPTPA-Bz-NO2, and stability constants of their complexes formed with Gd(III) and some endogenously available cations have been determined by pH-potentiometry. The selectivity of the ligand for Gd(III) over Zn(II) (log(KGdL/KZnL)) is especially important as it directly relates to the safety of the Gd(III) contrast agent.

[2] = Stability constants of the complexes formed with Zn(II) by pH-potentiometry; type: physicochemical; conditions: I=0.1M TMACI, t=25° C.; for logKZnL: stability constant
Text: as §1

[3] = Stability constants of the Ca complexes by pH-potentiometry; type: physicochemical; conditions: for logKCaL: stability constant
Text: as §1

[4] = Stability constants of the complexes formed with Gd(III) by pH-potentiometry; type: physicochemical; conditions: I=0.1M TMACI, t=25° C.; for logKGdL: stability constant
Text: as §1

[5] = IUPAC Stability constants. Academic Software and K. J. Powell, 1999; cited from earlier work
[6] = IUPAC Stability constants. Academic Software and K. J. Powell, 1999; cited from earlier work; remark: listed apart in the source
[7] = IUPAC Stability constants. Academic Software and K. J. Powell, 1999; cited from earlier work; remark: listed apart in the source
[8] = Simultaneous analysis of 17O NMR, EPR and NMRD data; conditions: for ΔH^‡ / ΔS^‡: water exchange; for kex^298: water exchange rate
Text: The ^17O NMR, NMRD and EPR experimental data (points) and the fitted curves (lines) as obtained in a simultaneous analysis, according to the method of Powell et al., J. Am. Chem. Soc.

`O=C(O)CN(CCCN(CC(=O)O)CC(=O)O)CCCN(CC(=O)O)CC(=O)O` [DPTPA] gave a pKa1 [1] of 10.91, a pKa2 [1] of 9.29 and a pKa3 [1] of 7.07. The pKa4 [1] was 2.76, the pKa5 [1] was 2.19 and the logKZnH2L [2] was 3.17. For the same compound, the logKZnHL [2] was 8.06, the logKZnL [2] was 15.60 and the logKCaH2L [3] was 6.01. It also gave a logKCaHL [3] of 8.63, a logKCaL [3] of 6.01 and a logKGdH2L [4] of 5.43. For the same compound, the logKGdHL [4] was 6.30 and the logKGdL [4] was 13.00.

In the case of `O=C(O)CN(CCN(CC(=O)O)CC(=O)O)CCN(CC(=O)O)CC(=O)O` [DTPA, diethylenetriamine-pentaacetic acid, reference compound], the logKZnHL [5] is given as 3.0, the logKZnL [5] is given as 18.3 and the logKGdHL [6] is given as 1.80. The logKGdL [6] was 22.50, the logKCaHL [7] was 6.42 and the logKCaL [7] was 10.89. The A/ħ ([8]; Gd(III) complex of the ligand) was −3.8 ± 0.2 10^6 rad s^−1, the Ev ([8]; Gd(III) complex of the ligand) was 0.382 ± 0.43 kcal/mol and the “Δ^2” value ([8]; Gd(III) complex of the ligand) was 0.46 ± 0.02 10^20 s^−1. For the same compound, the τr ([8]; Gd(III) complex of the ligand) was 58 ± 11 ps, the τy ([8]; Gd(III) complex of the ligand) was 25 ± 1 ps and the “ΔH^‡” value ([8]; Gd(III) complex of the ligand) was 12.3 ± 0.335 kcal/mol. The “ΔS^‡” value ([8]; Gd(III) complex of the ligand) was 53.0 ± 4.7 J mol^−1K^−1, the “kex^298” value ([8]; Gd(III) complex of the ligand) was 3.3 ± 0.2 10^6 s^−1 and the Er ([8]; not told) was 4.13 ± 0.19 kcal/mol.

Compound `O=C(O)CN(CCCN(CC(=O)O)CC(Cc1ccc([N+](=O)[O-])cc1)N(CC(=O)O)CC(=O)O)CC(=O)O` (centres unmarked) [EPTPA-bz-NO2] has a pKa1 [1] of 10.86, a pKa2 [1] of 8.94 and a pKa3 [1] of 4.70. For the same compound, the pKa4 [1] was 3.25, the pKa5 [1] was 2.51 and the logKZnH2L [2] was 2.53. It also gave a logKZnHL [2] of 8.99, a logKZnL [2] of 16.01 and a logKCaHL [3] of 7.04. The logKCaL [3] was 10.02, the logKGdH2L [4] was 2.40 and the logKGdHL [4] was 3.35. For the same compound, the logKGdL [4] was 19.31, the A/ħ ([8]; Gd(III) complex of the ligand) was −3.5 ± 0.2 10^6 rad s^−1 and the Er ([8]; Gd(III) complex of the ligand) was 4.76 ± 0.406 kcal/mol. For the same compound, the “Δ^2” value ([8]; Gd(III) complex of the ligand) was 0.37 ± 0.03 10^20 s^−1, the τr ([8]; Gd(III) complex of the ligand) was 84.6 ± 6 ps and the τy ([8]; Gd(III) complex of the ligand) was 20 ± 1 ps. The “ΔH^‡” value ([8]; Gd(III) complex of the ligand) was 5.66 ± 0.43 kcal/mol, the “ΔS^‡” value ([8]; Gd(III) complex of the ligand) was −9.2 ± 4.0 J mol^−1K^−1 and the “kex^298” value ([8]; Gd(III) complex of the ligand) was 146 ± 23 10^6 s^−1.
